Laboratory results from US20100256183A1, “FUNGICIDAL 2-ALKYLTHIO-2-QUINOLINYLOXY-ACETAMIDE DERIVATIVES” (priority 2007, published 2010).
Where two headings read alike, the source gives them in different places.

Columns and labels:
[1] = tested on: Erysiphe graminis f.sp. tritici; assay: Leaf disk assay, Erysiphe graminis f.sp. tritici (wheat powdery mildew); assay type: in vivo; details: Blumeria graminis, foliar, 96 h, read-out: control of fungal infection
Septoria nodorum = assay: Leaf disk assay, Septoria nodorum (wheat glume blotch); assay type: in vivo; details: for pest or weed control at 200 ppm: Parastagonospora nodorum, foliar, 96 h, read-out: control of fungal infection
Phytophthora infestans = assay: whole plant or invertebrate; assay type: in vivo; details: in Solanum lycopersicum, foliar, 96 h, read-out: control of fungal infection
Pyricularia oryzae = assay: whole plant or invertebrate; assay type: in vivo; details: foliar, 96 h, read-out: control of fungal infection
Pythium ultimum = Pythium ultimum (damping off) growth inhibition in potato dextrose broth, photometric; assay type: cell-based; details: Globisporangium ultimum, read-out: control of fungal infection
Plasmopara viticola = assay: Leaf disk assay, Plasmopara viticola (downy mildew of grapevine); assay type: in vivo; details: foliar, 168 h, read-out: control of fungal infection
[2] = 200 ppm, wheat leaf segments, preventive, four days after inoculation
[3] = 20 ppm, inhibition of growth after 48 hours at 24° C.
[4] = 200 ppm, grapevine leaf disks, preventive, seven days after inoculation
[5] = 20 ppm, preventive, four days after inoculation
[6] = 60 ppm, preventive, four days after inoculation
[7] = 200 ppm, preventive, four days after inoculation

Compound | pest or weed control at 200 ppm (Phytophthora infestans) [%] | pest or weed control at 200 ppm (Pyricularia oryzae) [%] | pest or weed control at 200 ppm [1] [%] | pest or weed control at 200 ppm (Plasmopara viticola) [%] | inhibition of growth at 20 ppm (Pythium ultimum; 48 h) [%] | further results
C#CC(C)(C)NC(=O)C(Oc1cc(C)c2ncc(Br)cc2c1)SC (centres unmarked) [2(4), 2-(3-Bromo-8-methyl-quinolin-6-yloxy)-N-(1,1-dimethyl-prop-2-ynyl)-2-methylsulfanyl-acetamide] | ≥ 60 | ≥ 60 | – | – | – | pest or weed control at 200 ppm [1, 2]: ≥ 60%; pest or weed control at 200 ppm (Septoria nodorum; [2]): ≥ 60%; inhibition of growth at 20 ppm (Pythium ultimum; [3]): ≥ 60%; pest or weed control at 200 ppm (Plasmopara viticola; [4]): ≥ 60%
COCC#CC(C)(C)NC(=O)C(Oc1cc(C)c2ncc(Br)cc2c1)SC (centres unmarked) [3(4), 2-(3-Bromo-8-methyl-quinolin-6-yloxy)-N-(4-methoxy-1,1-dimethyl-but-2-ynyl)-2-methylsulfanyl-acetamide] | ≥ 60 | ≥ 60 | ≥ 60 | ≥ 60 | – | pest or weed control at 200 ppm (Septoria nodorum): ≥ 60%
CCC#CC(C)(C)NC(=O)C(Oc1cc(C)c2ncc(Br)cc2c1)SC (centres unmarked) [4(4), 2-(3-Bromo-8-methyl-quinolin-6-yloxy)-N-(1,1-dimethyl-pent-2-ynyl)-2-methylsulfanyl-acetamide] | – | – | – | ≥ 60 | – | –
COCCC#CC(C)(C)NC(=O)C(Oc1cc(C)c2ncc(Br)cc2c1)SC (centres unmarked) [5(4), 2-(3-Bromo-8-methyl-quinolin-6-yloxy)-N-(5-methoxy-1,1-dimethyl-pent-2-ynyl)-2-methylsulfanyl-acetamide] | ≥ 60 | – | ≥ 60 | ≥ 60 | ≥ 60 | –
C#CC(C)(CC)NC(=O)C(Oc1cc(C)c2ncc(Br)cc2c1)SC (centres unmarked) [7(4), 2-(3-Bromo-8-methyl-quinolin-6-yloxy)-N-(1-ethyl-1-methyl-prop-2-ynyl)-2-methylsulfanyl-acetamide] | – | ≥ 60 | – | – | – | pest or weed control at 200 ppm [1, 2]: ≥ 60%; pest or weed control at 200 ppm (Septoria nodorum; [2]): ≥ 60%; pest or weed control at 200 ppm (Plasmopara viticola; [4]): ≥ 60%
CC#CC(C)(CC)NC(=O)C(Oc1cc(C)c2ncc(Br)cc2c1)SC (centres unmarked) [8(4), 2-(3-Bromo-8-methyl-quinolin-6-yloxy)-N-(1-ethyl-1-methyl-but-2-ynyl)-2-methylsulfanyl-acetamide] | – | – | – | ≥ 60 | – | pest or weed control at 200 ppm (Septoria nodorum): ≥ 60%
C#CC(C)(NC(=O)C(Oc1cc(C)c2ncc(Br)cc2c1)SC)C(C)C (centres unmarked) [12(4), 2-(3-Bromo-8-methyl-quinolin-6-yloxy)-N-(1-isopropyl-1-methyl-prop-2-ynyl)-2-methylsulfanyl-acetamide] | – | – | – | – | – | pest or weed control at 200 ppm (Septoria nodorum; [2]): ≥ 60%; pest or weed control at 200 ppm (Plasmopara viticola; [4]): ≥ 60%
CC#CC(C)(C)NC(=O)C(Oc1cc(C)c2ncc(Cl)cc2c1)SC (centres unmarked) [18(4), 2-(3-Chloro-8-methyl-quinolin-6-yloxy)-N-(1,1-dimethyl-but-2-ynyl)-2-methylsulfanyl-acetamide] | ≥ 60 | ≥ 60 | ≥ 60 | ≥ 60 | ≥ 60 | pest or weed control at 200 ppm (Septoria nodorum): ≥ 60%
COCC#CC(C)(C)NC(=O)C(Oc1cc(C)c2ncc(Cl)cc2c1)SC (centres unmarked) [19(4), 2-(3-Chloro-8-methyl-quinolin-6-yloxy)-N-(4-methoxy-1,1-dimethyl-but-2-ynyl)-2-methylsulfanyl-acetamide] | ≥ 60 | – | ≥ 60 | ≥ 60 | ≥ 60 | –
CCC#CC(C)(C)NC(=O)C(Oc1cc(C)c2ncc(Cl)cc2c1)SC (centres unmarked) [20(4), 2-(3-Chloro-8-methyl-quinolin-6-yloxy)-N-(1,1-dimethyl-pent-2-ynyl)-2-methylsulfanyl-acetamide] | ≥ 60 | – | – | – | – | –
COCCC#CC(C)(C)NC(=O)C(Oc1cc(C)c2ncc(Cl)cc2c1)SC (centres unmarked) [21(4), 2-(3-Chloro-8-methyl-quinolin-6-yloxy)-N-(5-methoxy-1,1-dimethyl-pent-2-ynyl)-2-methylsulfanyl-acetamide] | ≥ 60 | – | ≥ 60 | ≥ 60 | ≥ 60 | –
CCOCC#CC(C)(C)NC(=O)C(Oc1cc(C)c2ncc(Br)cc2c1)SC (centres unmarked) [22(4), 2-(3-Bromo-8-methyl-quinolin-6-yloxy)-N-(4-ethoxy-1,1-dimethyl-but-2-ynyl)-2-methylsulfanyl-acetamide] | – | – | – | ≥ 60 | – | –
CSC(Oc1cc(C)c2ncc(Br)cc2c1)C(=O)NC(C)(C)C#C/C=C/CO (centres unmarked) [24(4), 2-(3-Bromo-8-methyl-quinolin-6-yloxy)-N-((E)-6-hydroxy-1,1-dimethyl-hex-4-en-2-ynyl)-2-methylsulfanyl-acetamide] | ≥ 60 | – | – | – | – | pest or weed control at 200 ppm [1, 2]: ≥ 60%; inhibition of growth at 20 ppm (Pythium ultimum; [3]): ≥ 60%; pest or weed control at 200 ppm (Plasmopara viticola; [4]): ≥ 60%
COCCOCCC#CC(C)(C)NC(=O)C(Oc1cc(C)c2ncc(Br)cc2c1)SC (centres unmarked) [25(4), 2-(3-Bromo-8-methyl-quinolin-6-yloxy)-N-[5-(2-methoxy-ethoxy)-1,1-dimethyl-pent-2-ynyl]-2-methylsulfanyl-acetamide] | ≥ 60 | – | – | ≥ 60 | ≥ 60 | –
CSC(Oc1cc(C)c2ncc(Br)cc2c1)C(=O)NC(C)(C)C#CC(C)(O)CCl (centres unmarked) [27(4), 2-(3-Bromo-8-methyl-quinolin-6-yloxy)-N-(5-chloro-4-hydroxy-1,1,4-trimethyl-pent-2-ynyl)-2-methylsulfanyl-acetamide] | – | – | ≥ 60 | ≥ 60 | – | –
C=CCOCC#CC(C)(C)NC(=O)C(Oc1cc(C)c2ncc(Br)cc2c1)SC (centres unmarked) [28(4), N-(4-Allyloxy-1,1-dimethyl-but-2-ynyl)-2-(3-bromo-8-methyl-quinolin-6-yloxy)-2-methylsulfanyl-acetamide] | ≥ 60 | – | ≥ 60 | – | ≥ 60 | pest or weed control at 200 ppm (Septoria nodorum): ≥ 60%
C#CCOCC#CC(C)(C)NC(=O)C(Oc1cc(C)c2ncc(Br)cc2c1)SC (centres unmarked) [29(4), 2-(3-Bromo-8-methyl-quinolin-6-yloxy)-N-(1,1-dimethyl-4-prop-2-ynyloxy-but-2-ynyl)-2-methylsulfanyl-acetamide] | – | ≥ 60 | ≥ 60 | – | – | –
CSC(Oc1cc(C)c2ncc(Br)cc2c1)C(=O)NC(C)(C)C#CCO (centres unmarked) [30(4), 2-(3-Bromo-8-methyl-quinolin-6-yloxy)-N-(4-hydroxy-1,1-dimethyl-but-2-ynyl)-2-methylsulfanyl-acetamide] | ≥ 60 | ≥ 60 | ≥ 60 | – | ≥ 60 | pest or weed control at 200 ppm (Septoria nodorum): ≥ 60%
COCOCC#CC(C)(C)NC(=O)C(Oc1cc(C)c2ncc(Br)cc2c1)SC (centres unmarked) [31(4), 2-(3-Bromo-8-methyl-quinolin-6-yloxy)-N-(4-methoxymethoxy-1,1-dimethyl-but-2-ynyl)-2-methylsulfanyl-acetamide] | ≥ 60 | – | ≥ 60 | – | ≥ 60 | –
COCCOCOCC#CC(C)(C)NC(=O)C(Oc1cc(C)c2ncc(Br)cc2c1)SC (centres unmarked) [32(4), 2-(3-Bromo-8-methyl-quinolin-6-yloxy)-N-[4-(2-methoxy-ethoxymethoxy)-1,1-dimethyl-but-2-ynyl]-2-methylsulfanyl-acetamide] | ≥ 60 | – | ≥ 60 | ≥ 60 | – | –
C#CC(C)(C)NC(=O)C(Oc1cc(CC)c2ncc(Br)cc2c1)SC (centres unmarked) [33(4), 2-(3-Bromo-8-ethyl-quinolin-6-yloxy)-N-(1,1-dimethyl-prop-2-ynyl)-2-methylsulfanyl-acetamide] | – | ≥ 60 | – | – | – | pest or weed control at 200 ppm [1, 2]: ≥ 60%; pest or weed control at 200 ppm (Septoria nodorum; [2]): ≥ 60%; inhibition of growth at 20 ppm (Pythium ultimum; [3]): ≥ 60%; pest or weed control at 200 ppm (Plasmopara viticola; [4]): ≥ 60%
CC#CC(C)(C)NC(=O)C(Oc1cc(CC)c2ncc(Br)cc2c1)SC (centres unmarked) [34(4), 2-(3-Bromo-8-ethyl-quinolin-6-yloxy)-N-(1,1-dimethyl-but-2-ynyl)-2-methylsulfanyl-acetamide] | – | – | ≥ 60 | ≥ 60 | ≥ 60 | –
CCc1cc(OC(SC)C(=O)NC(C)(C)C#CCOC)cc2cc(Br)cnc12 (centres unmarked) [35(4), 2-(3-Bromo-8-ethyl-quinolin-6-yloxy)-N-(4-methoxy-1,1-dimethyl-but-2-ynyl)-2-methylsulfanyl-acetamide] | ≥ 60 | ≥ 60 | ≥ 60 | ≥ 60 | ≥ 60 | pest or weed control at 200 ppm (Septoria nodorum): ≥ 60%
C#CC(C)(C)NC(=O)C(Oc1ccc2ncc(Cl)cc2c1)SC (centres unmarked) [Compound 1(23), reference compound] | – | – | – | – | – | Efficacy (%) (Septoria nodorum; [5]): 0%; Efficacy (%) (Septoria nodorum; [6]): 0%; Efficacy (%) (Septoria nodorum; [7]): 0%
C#CC(C)(C)NC(=O)C(Oc1cc(C)c2ncc(Cl)cc2c1)SC (centres unmarked) [Compound 17(4), 2-(3-Chloro-8-methyl-quinolin-6-yloxy)-N-(1,1-dimethyl-prop-2-ynyl)-2-methylsulfanyl-acetamide] | ≥ 60 | ≥ 60 | – | – | – | pest or weed control at 200 ppm [1, 2]: ≥ 60%; Efficacy (%) (Septoria nodorum; [5]): 80%; Efficacy (%) (Septoria nodorum; [6]): 100%; Efficacy (%) (Septoria nodorum; [7]): 100%; pest or weed control at 200 ppm (Septoria nodorum; [2]): ≥ 60%; inhibition of growth at 20 ppm (Pythium ultimum; [3]): ≥ 60%; pest or weed control at 200 ppm (Plasmopara viticola; [4]): ≥ 60%
